Test results reported in patent US4315018A, “Specific parasiticidal use of 2-benzamido-5-nitro-thiazole derivatives” (priority 1978, dated 1982).
Entries after “also recorded” stand apart in the source; their conditions may differ.

Columns and labels:
[1] = Toxicity study in cats, single doses; type: in vivo
From the text: (§1) Additional toxicity studies have been carried out in cats and dogs, which can be summarized as follows.
The lethal dose of the test material in cats is greater than 10 g/kg.

[2] = system: whipworms; experiment: Treatment of nematodes in dogs: whipworms; type: in vivo; conditions: 100 mg/kg single dose, tablets containing 0.5 g, 3 dogs, necropsy 4 days after treatment
From the text: (§2) The general testing procedure was that of Example 1. […] 100% efficacy against whipworms and 65% efficacy against hookworms were found upon necropsy 4 days after treatment using a single dose treatment.

[3] = system: Dypilidium caninum; experiment: Treatment of Dypilidium caninum in dogs (natural infection); type: in vivo; conditions: 100 mg/kg, tablets containing 0.5 gram, necropsy 21 days after treatment
From the text: In general, the testing procedure was substantially the same as in Example 1 except necropsy 21 days after treatment. The treatment was 100% effective.

[4] = Side effects of treatment in Taenia pisiformis-infected dogs; type: in vivo, dogs (beagles); conditions: 75 mg/kg, 15 dogs
Procedure: (§3) Food and water intake, faecel consistency, vomiting, general appearance and behavior were recorded hourly during the day of treatment and twice daily thereafter.

[5] = system: Echinococus granulosus; experiment: Treatment of Echinococus granulosus in dogs (experimental infection); type: in vivo; conditions: 200 mg/kg, 0.5 gram tablets, treated 4 or 6 weeks after infection, necropsy 4 days after treatment
Procedure: Again, the general testing procedure was that of Example 1. This time 16 dogs to be treated were experimentally infected and divided into two groups along with 4 infected control dogs in each group. The 8 dogs of Group 1 were treated 4 weeks after infection, and the 8 dogs of Group 2 were treated 6 weeks after infection, each at a dose of 200 mg/kg, using the 0.5 gram active ingredient tablets. 100% efficacy of the single dose treatment was found upon necropsy 4 days after treatment.

[6] = system: Taenia pisiformis; experiment: Treatment of Taenia pisiformis in dogs (experimental infection, single oral dose); type: in vivo, dogs (beagles)
Procedure: Fifteen beagles (8 male and 7 female), ranging in age from 8 to 30 months, were individually housed in stainless-steel cages and fed with commercial dog food. Water was provided ad libitum. After 2 weeks acclimatization, each dog was exposed to infection by administering orally 14-20 cysts containing Taenia pisiformis strobilocerci obtained 24 hours before from wild rabbits. Vitality of the cysts was verified by evagination in bile of the dog.
Seven dogs (Group 1) were given the drug 6 weeks after infection with Taenia pisiformis, and the other 8 dogs (Group 2) were given the drug 8 weeks after infection.
as §3
The tapeworms that were found were then removed, counted and examined for scolices.
The emission time of the faeces for each dog was recorded during the day, when possible.
Nineteen days after treatment for Group 1, and 4 days after treatment for Group 2, the dogs were killed and the small intestines were examined in order to reveal the presence of Taenia spp. This 19-day waiting period for Group 1 allowed time for any viable scolices to redevelop, thus making them more easily visible at necropsy.
The intestines and intestinal contents from the pyloric portion of the stomach through the rectum were thoroughly examined for parasites.

[7] = system: Moniezia spp.; experiment: Treatment of Moniezia expansa in lambs (natural infestation); type: in vivo
Procedure: (§4) Twenty lambs spontaneously infested by nematodes and cestodes were removed from a flock near Limoges (Haute-Vienne), France. They were housed in sheepfold --concentrate food, 1 kg per day per lamb, water and hay, ad libitum, were provided.
(§5) The animals were assigned to treatment groups as indicated below:
(§6) Seven lambs (Group 1, black) were given a single 100 mg/kg of body weight dose of the test material dissolved in a mixture of water and gum syrup (0.5 ml/kg of body weight) orally administered with a syringe.
(§7) Seven lambs (Group 2, red) were given a single 50 mg/kg of body weight dose of the test material dissolved in a mixture of water and gum syrup (0.5 ml/kg of body weight) orally administered with a syringe.
(§8) Six lambs (Group 3, blue) were given 0.5 ml/kg of body weight of a mixture of water and gum syrup orally administered with a syringe.
(§9) 48 hours after treatment, necroscopies were performed.
(§10) Scolices and gastro intestinal worm counts were carried out.

[8] = Toxicity study in dogs, single doses; type: in vivo
From the text: as §1
The lethal dose of the test material in dogs is greater than 10 g/kg.

[9] = Necropsy observations in treated lambs; type: in vivo; conditions: 48 hours after treatment
Procedure: as §6, §7, §9

[10] = system: Gastro-Intestinal Nematodes; experiment: Gastro-intestinal nematodes in lambs, worm counts; type: in vivo
Procedure: as §4
To confirm the infestation, faeces were taken from the rectum 48 hours prior to treatment and the number of eggs counted.
as §5, §6, §7, §8, §9, §10

[11] = system: hookworms; experiment: Treatment of nematodes in dogs: hookworms; type: in vivo
From the text: as §2

[12] = single dose 100 mg/kg, 7 naturally infested lambs

SMILES: CC(=O)Oc1ccccc1C(=O)Nc1ncc([N+](=O)[O-])s1 [PH 5776, 2-(2'-acetoxy)-benzamido-5-nitro-thiazole]
- Lethal dose [1]: greater than 10 g/kg
- Necropsy findings [1]: slight yellow discoloration of the renal cortex
- Signs of intoxication (central nervous system) ([1]; doses of 5 and 10 g/kg): a suggestion of central nervous system depression
- Signs of intoxication ([1]; single doses of 1 g/kg): Minimal signs (slight diarrhea) of intoxication
- Route of excretion ([1]; suggested from necropsy findings): urine as a route of excretion
- Efficacy against whipworms [2]: 100%
- Effectiveness of treatment [3]: 100%
- Undesirable side effects of the treatment [4]: not found in any of the 15 dogs
- Efficacy of the single dose treatment [5]: 100%
- Effectiveness against Taenia pisiformis ([6]; 75 mg of body weight): effective
- Tapeworm material in faeces after the 14th hour ([6]; 75 mg/kg): not found
- Tapeworms at necropsy (in words) ([6]; 75 mg/kg, 15 dogs, day 19 (Group 1) and day 4 (Group 2)): tapeworms were not found in any of the 15 dogs; also recorded: None of the dogs on study were positive for tapeworms
- Number of dogs showing tapeworm material in the faeces ([6]; Group 1 (7 dogs), 75 mg/kg): 5 dogs
- Tapeworm Material In Faeces (8th-14th Hour) ([6]; Group 1, 75 mg/kg, 6 weeks after infection): yes and no
- Number of dogs showing tapeworm material in the faeces ([6]; Group 2 (8 dogs), 75 mg/kg): 6 dogs
- Tapeworm Material In Faeces (8th-14th Hour) ([6]; Group 2, 75 mg/kg, 8 weeks after infection): yes and no
- Number of dogs showing tapeworm material in the faeces ([6]; Groups 1 and 2, out of 15 dogs, 75 mg/kg): 11 dogs
- Efficacy against Moniezia spp. (in words) ([7]; 50 mg/kg): the efficacy is decreasing
- Number of lambs negative after treatment ([7]; 50 mg/kg): 3 lambs
- Number of lambs still infested with the cestoda ([7]; Group 2 (red), 50 mg/kg, 48 hours after treatment): 3 lambs
- Activity against Moniezia spp. [7, 12]: ~100%
- Activity against Moniezia spp. (in words) [7, 12]: very active
- Lethal dose [8]: greater than 10 g/kg
- Signs of intoxication ([8]; single doses of 1, 5 or 10 g/kg): Minimal signs of intoxication related to gastro-intestinal distress
- Changes in the internal organs and coloration of the tissues ([9]; 100 or 50 mg/kg): No changes in the internal organs and no coloration of the tissues were observed
- Coloration of small intestine wall tissues ([9]; treated groups (100 or 50 mg/kg)): slightly colored yellow
- After Treatment At Necroscopies: Number Of Worms, Large Intestine ([10]; Group 1, 100 mg/kg): 0
- Effect on round worms / gastro-intestinal nematodes (in words) ([10]; lambs, 48 hours after treatment, 50 and 100 mg/kg): no toxic effect on any of the present round worms; also recorded: does not reveal any efficacy; also recorded: no activity
- Efficacy against hookworms ([11]; 100 mg/kg single dose, tablets containing 0.5 g, 3 dogs, necropsy 4 days after treatment): 65%
- Efficacy against hookworms ([11]; 3 repeated doses of 100 mg/kg at an interval of 7 days): 93%
